{"source": "patent US20080319042A1", "about": "“Compositions and methods for treatment of liver disease” (priority 2007, published 2008)", "key": {"[1]": {"test_system": "HCV/HIV pseudovirions", "assay": "microbe, parasite or virus in culture", "type": "cell-based, hepatitis C virus", "conditions": "100 μg/mL; FIG. 1"}, "[2]": {"test_system": "HBV DNA", "assay": "Anti-HBV DNA Assay", "type": "cell-based, hepatitis B virus", "conditions": "for HBV DNA copies/ml: replicates, listed as HP-S4"}, "[3]": {"test_system": "HBsAg", "assay": "Anti-HBSAg Assay (Procedure B), HBsAg", "type": "cell-based, hepatitis B virus", "description": "The HBV-producing human hepatoblastoma cell line, Hep G2 2.2.15 is maintained in DMEM supplemented with 10% fetal bovine serum (FBS), 2 mM glutamine, 100 units/ml penicillin, 100 μg/ml streptomycin at 37° C. under 5% CO2 in air.\nSamples were dissolved in DMSO at the concentration of 20 mg/mL, then further diluted with DMEM medium to the appropriate concentration.\nHep G2 2.2.15 cells (120 μl) were seeded onto 96-well plates at a concentration of 2×10^5 cells/mL. The cells incubated for 72 h in the medium without G418, after which the test samples (120 μl) were added. Five 3-fold serial dilutions of samples were tested. PBS and 3TC (lamivudine) were included as the negative and positive controls, respectively. The treated cells were incubated at 37° C. for 9 days; with the medium with sample being changed each 3 days, after which the culture supernatant was removed for analysis of both the hepatitis B surface antigen (HBsAg) production and hepatitis B DNA expression.\nThe HBsAg released into the culture medium in the presence or absence of test material was assayed using the kit manufactured by Shanghai Siic Kehua Biotech Co., Ltd (Shanghai, China). This enzyme immunoassay is based on the capture of HBsAg on monoclonal antibody-coated plates. Four- and twelve-fold dilutions of all culture supernatants collected were assayed in triplicate wells of the kit plate. The percentage inhibition of HBsAg secretion in the presence of the compound was calculated against the negative control (PBS). The IC50 values, the dose that inhibited viruses by 50%, were calculated using non-linear regression analysis (percent survival versus concentration)."}, "[4]": {"test_system": "HBeAg", "assay": "Anti-HBSAg Assay (Procedure B), HBeAg", "type": "cell-based, hepatitis B virus"}}, "note": "Several values for one entry are separate records, joined by “and”; a condition that tells them apart may be missing. Identical values can stand only once.", "data": [{"smiles": "OCC1=C[C@@H](O)[C@@H]2C=CO[C@@H](O)[C@H]12", "note": "[aucubin aglycone]", "values": [{"measurement": "inhibition of HCV/HIV entry", "setting": "[1]", "value": "approximately 80%"}, {"measurement": "HBV DNA Average", "setting": "[2]; 6.25 μg/ml", "value": "1.10 × 10^6 copies/ml"}, {"measurement": "HBV DNA Inhibit", "setting": "[2]; 6.25 μg/ml", "value": 5.99, "unit": "%"}, {"measurement": "HBV DNA copies/ml", "setting": "[2]; 6.25 μg/ml", "value": "1.26E+06 copies/ml and 9.83E+05 copies/ml and 1.06E+06 copies/ml"}, {"measurement": "HBV DNA Average", "setting": "[2]; 12.5 μg/ml", "value": "9.52 × 10^5 copies/ml"}, {"measurement": "HBV DNA Inhibit", "setting": "[2]; 12.5 μg/ml", "value": 8.60, "unit": "%"}, {"measurement": "HBV DNA copies/ml", "setting": "[2]; 12.5 μg/ml", "value": "1.16E+06 copies/ml and 9.17E+05 copies/ml and 7.78E+05 copies/ml"}, {"measurement": "HBV DNA Average", "setting": "[2]; 25 μg/ml", "value": "1.01 × 10^6 copies/ml"}, {"measurement": "HBV DNA Inhibit", "setting": "[2]; 25 μg/ml", "value": 13.70, "unit": "%"}, {"measurement": "HBV DNA copies/ml", "setting": "[2]; 25 μg/ml", "value": "1.02E+06 copies/ml and 9.74E+05 copies/ml and 1.04E+06 copies/ml"}, {"measurement": "HBV DNA Average", "setting": "[2]; 50 μg/ml", "value": "9.79 × 10^5 copies/ml"}, {"measurement": "HBV DNA Inhibit", "setting": "[2]; 50 μg/ml", "value": 16.30, "unit": "%"}, {"measurement": "HBV DNA copies/ml", "setting": "[2]; 50 μg/ml", "value": "1.05E+06 copies/ml and 9.27E+05 copies/ml and 9.59E+05 copies/ml"}, {"measurement": "HBV DNA Average", "setting": "[2]; 100 μg/ml", "value": "8.43 × 10^5 copies/ml"}, {"measurement": "HBV DNA Inhibit", "setting": "[2]; 100 μg/ml", "value": 27.90, "unit": "%"}, {"measurement": "HBV DNA copies/ml", "setting": "[2]; 100 μg/ml", "value": "7.90E+05 copies/ml and 7.94E+05 copies/ml and 9.44E+05 copies/ml"}, {"measurement": "HBsAg Ave.", "setting": "[3]; 6.25 μg/mL", "value": 1.407}, {"measurement": "HBsAg Inhibition %", "setting": "[3]; 6.25 μg/mL", "value": 0, "unit": "%"}, {"measurement": "HBsAg OD1", "setting": "[3]; 6.25 μg/mL", "value": 1.392}, {"measurement": "HBsAg OD2", "setting": "[3]; 6.25 μg/mL", "value": 1.375}, {"measurement": "HBsAg OD3", "setting": "[3]; 6.25 μg/mL", "value": 1.454}, {"measurement": "HBsAg Ave.", "setting": "[3]; 12.5 μg/mL", "value": 1.323}, {"measurement": "HBsAg Inhibition %", "setting": "[3]; 12.5 μg/mL", "value": 4.5, "unit": "%"}, {"measurement": "HBsAg OD1", "setting": "[3]; 12.5 μg/mL", "value": 1.370}, {"measurement": "HBsAg OD2", "setting": "[3]; 12.5 μg/mL", "value": 1.372}, {"measurement": "HBsAg OD3", "setting": "[3]; 12.5 μg/mL", "value": 1.227}, {"measurement": "HBsAg Ave.", "setting": "[3]; 25 μg/mL", "value": 1.300}, {"measurement": "HBsAg Inhibition %", "setting": "[3]; 25 μg/mL", "value": 6.1, "unit": "%"}, {"measurement": "HBsAg OD1", "setting": "[3]; 25 μg/mL", "value": 1.608}, {"measurement": "HBsAg OD2", "setting": "[3]; 25 μg/mL", "value": 1.116}, {"measurement": "HBsAg OD3", "setting": "[3]; 25 μg/mL", "value": 1.175}, {"measurement": "HBsAg Ave.", "setting": "[3]; 50 μg/mL", "value": 0.845}, {"measurement": "HBsAg Inhibition %", "setting": "[3]; 50 μg/mL", "value": 37.9, "unit": "%"}, {"measurement": "HBsAg OD1", "setting": "[3]; 50 μg/mL", "value": 0.935}, {"measurement": "HBsAg OD2", "setting": "[3]; 50 μg/mL", "value": 0.926}, {"measurement": "HBsAg OD3", "setting": "[3]; 50 μg/mL", "value": 0.675}, {"measurement": "HBsAg Ave.", "setting": "[3]; 100 μg/mL", "value": 0.656}, {"measurement": "HBsAg Inhibition %", "setting": "[3]; 100 μg/mL", "value": 52.6, "unit": "%"}, {"measurement": "HBsAg OD1", "setting": "[3]; 100 μg/mL", "value": 0.667}, {"measurement": "HBsAg OD2", "setting": "[3]; 100 μg/mL", "value": 0.641}, {"measurement": "HBsAg OD3", "setting": "[3]; 100 μg/mL", "value": 0.66}, {"measurement": "HBeAg Ave", "setting": "[4]; 6.25 μg/mL", "value": 1.299}, {"measurement": "HBeAg Inhibition %", "setting": "[4]; 6.25 μg/mL", "value": 0, "unit": "%"}, {"measurement": "HBeAg OD1", "setting": "[4]; 6.25 μg/mL", "value": 1.327}, {"measurement": "HBeAg OD2", "setting": "[4]; 6.25 μg/mL", "value": 1.265}, {"measurement": "HBeAg OD3", "setting": "[4]; 6.25 μg/mL", "value": 1.304}, {"measurement": "HBeAg Ave", "setting": "[4]; 12.5 μg/mL", "value": 1.393}, {"measurement": "HBeAg Inhibition %", "setting": "[4]; 12.5 μg/mL", "value": 0, "unit": "%"}, {"measurement": "HBeAg OD1", "setting": "[4]; 12.5 μg/mL", "value": 1.561}, {"measurement": "HBeAg OD2", "setting": "[4]; 12.5 μg/mL", "value": 1.316}, {"measurement": "HBeAg OD3", "setting": "[4]; 12.5 μg/mL", "value": 1.303}, {"measurement": "HBeAg Ave", "setting": "[4]; 25 μg/mL", "value": 1.334}, {"measurement": "HBeAg Inhibition %", "setting": "[4]; 25 μg/mL", "value": 0, "unit": "%"}, {"measurement": "HBeAg OD1", "setting": "[4]; 25 μg/mL", "value": 1.375}, {"measurement": "HBeAg OD2", "setting": "[4]; 25 μg/mL", "value": 1.335}, {"measurement": "HBeAg OD3", "setting": "[4]; 25 μg/mL", "value": 1.293}, {"measurement": "HBeAg Ave", "setting": "[4]; 50 μg/mL", "value": 1.226}, {"measurement": "HBeAg Inhibition %", "setting": "[4]; 50 μg/mL", "value": 0, "unit": "%"}, {"measurement": "HBeAg OD1", "setting": "[4]; 50 μg/mL", "value": 1.295}, {"measurement": "HBeAg OD2", "setting": "[4]; 50 μg/mL", "value": 1.259}, {"measurement": "HBeAg OD3", "setting": "[4]; 50 μg/mL", "value": 1.123}, {"measurement": "HBeAg Ave", "setting": "[4]; 100 μg/mL", "value": 1.329}, {"measurement": "HBeAg Inhibition %", "setting": "[4]; 100 μg/mL", "value": 0, "unit": "%"}, {"measurement": "HBeAg OD1", "setting": "[4]; 100 μg/mL", "value": 1.162}, {"measurement": "HBeAg OD2", "setting": "[4]; 100 μg/mL", "value": 1.391}, {"measurement": "HBeAg OD3", "setting": "[4]; 100 μg/mL", "value": 1.435}]}]}
